This is an account of results in ChEMBL document CHEMBL1909046, “DrugMatrix in vitro pharmacology data”.

A short description of assay [1]: DRUGMATRIX: Sigma2 radioligand binding (ligand: [3H] Ifenprodil). In kind it is cell membranes, Rattus norvegicus, Wistar, Brain, Membrane. The conditions noted are these: Not Active = under 50% inhibition at 10 µM.
The target in assay [2] is T1, C-C chemokine receptor type 4 (Homo sapiens, UniProt P51679). Also: in other assays of this panel Not Active means under 50% inhibition at 10 µM.
T1 sequence (P51679 whole entry): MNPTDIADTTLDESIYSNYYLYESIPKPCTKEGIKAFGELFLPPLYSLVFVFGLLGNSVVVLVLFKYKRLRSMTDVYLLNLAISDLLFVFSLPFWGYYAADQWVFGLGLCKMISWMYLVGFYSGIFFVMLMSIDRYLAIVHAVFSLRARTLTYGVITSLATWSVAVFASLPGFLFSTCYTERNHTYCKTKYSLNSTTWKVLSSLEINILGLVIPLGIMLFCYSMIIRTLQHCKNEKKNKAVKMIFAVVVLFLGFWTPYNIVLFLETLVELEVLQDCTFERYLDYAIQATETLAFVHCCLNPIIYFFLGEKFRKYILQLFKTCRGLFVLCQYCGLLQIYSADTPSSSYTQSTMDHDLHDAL
The format is cell membranes, Chem-1, Membrane.

Assay [3] can be described thus: DRUGMATRIX: Potassium Channel [KATP] radioligand binding (ligand: [3H] Glyburide). The format is cell membranes, Membrane. The conditions noted are these: hit-t15; Not Active = under 50% inhibition at 10 µM.
For a further assay, the target named is T2, Neutrophil elastase (Homo sapiens, UniProt P08246).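 Also: inhibition of neutrophil elastase enzyme activity, measured with a p-nitroanilide-linked peptide substrate; in other assays of this panel Not Active means under 50% inhibition at 10 µM.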
T2 sequence (P08246 whole entry): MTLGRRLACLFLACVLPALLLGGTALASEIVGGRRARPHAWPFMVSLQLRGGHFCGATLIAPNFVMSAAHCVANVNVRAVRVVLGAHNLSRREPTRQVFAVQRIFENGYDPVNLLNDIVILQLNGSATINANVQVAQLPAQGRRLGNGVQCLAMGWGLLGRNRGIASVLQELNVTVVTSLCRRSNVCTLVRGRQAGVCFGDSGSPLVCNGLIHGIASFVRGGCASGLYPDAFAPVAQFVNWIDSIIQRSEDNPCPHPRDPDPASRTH
In kind it is tissue-based.

In the next assay the target is T3, Interstitial collagenase (Homo sapiens, UniProt P03956).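 Also: MMP-1 enzyme inhibition assay using a peptide substrate; in other assays of this panel Not Active means under 50% inhibition at 10 µM.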
T3 sequence (P03956 whole entry): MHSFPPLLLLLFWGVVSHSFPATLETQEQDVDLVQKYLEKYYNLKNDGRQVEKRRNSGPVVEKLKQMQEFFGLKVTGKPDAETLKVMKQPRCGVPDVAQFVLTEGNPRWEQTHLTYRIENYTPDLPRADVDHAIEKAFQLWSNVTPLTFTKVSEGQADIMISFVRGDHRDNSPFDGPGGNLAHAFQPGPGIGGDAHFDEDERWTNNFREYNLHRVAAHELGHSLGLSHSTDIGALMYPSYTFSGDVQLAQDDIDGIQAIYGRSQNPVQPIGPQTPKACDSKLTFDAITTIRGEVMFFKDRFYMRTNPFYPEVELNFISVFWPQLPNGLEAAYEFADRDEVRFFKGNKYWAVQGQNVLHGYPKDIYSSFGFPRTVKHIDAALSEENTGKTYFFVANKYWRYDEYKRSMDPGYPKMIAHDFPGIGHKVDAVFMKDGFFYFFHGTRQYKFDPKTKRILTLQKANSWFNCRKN
The assay can be described thus: biochemical. The format is tissue-based, Rheumatoid synovial fibroblasts.

In assay [4] the target is Mitogen-activated protein kinase 3 (Homo sapiens, UniProt P27361). Put plainly: DRUGMATRIX: Protein Serine/Threonine Kinase, ERK1 enzyme inhibition (substrate: Myelin Basic Protein). Also on record: species or system Escherichia coli. The settings on record: Not Active = under 50% inhibition at 10 µM.
In the next assay the target is Acetylcholinesterase (Homo sapiens, UniProt P22303). The assay can be described thus: DRUGMATRIX: Acetylcholinesterase enzyme inhibition (substrate: acetylthiocholine). The format is cell-based, HEK293. The settings on record: hek293; Not Active = under 50% inhibition at 10 µM.
Acetylcholinesterase, sequence (P22303 whole entry): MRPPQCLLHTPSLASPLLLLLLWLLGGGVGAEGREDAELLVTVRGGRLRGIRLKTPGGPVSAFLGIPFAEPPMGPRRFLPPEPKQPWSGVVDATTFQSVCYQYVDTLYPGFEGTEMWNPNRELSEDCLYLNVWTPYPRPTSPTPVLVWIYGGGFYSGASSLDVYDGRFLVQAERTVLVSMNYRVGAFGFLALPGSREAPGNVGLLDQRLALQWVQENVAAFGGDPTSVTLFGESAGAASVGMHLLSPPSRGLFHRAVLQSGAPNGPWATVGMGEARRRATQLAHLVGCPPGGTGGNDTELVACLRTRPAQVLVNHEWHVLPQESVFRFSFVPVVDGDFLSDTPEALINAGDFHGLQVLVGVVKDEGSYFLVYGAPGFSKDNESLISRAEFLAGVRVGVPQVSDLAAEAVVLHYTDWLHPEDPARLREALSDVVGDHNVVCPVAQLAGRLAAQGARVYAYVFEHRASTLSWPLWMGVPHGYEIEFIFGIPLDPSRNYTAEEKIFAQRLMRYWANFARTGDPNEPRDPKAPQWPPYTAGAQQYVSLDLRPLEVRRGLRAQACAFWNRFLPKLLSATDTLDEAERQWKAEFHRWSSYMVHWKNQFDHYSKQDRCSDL

Mitogen-activated protein kinase 3, sequence (P27361 whole entry): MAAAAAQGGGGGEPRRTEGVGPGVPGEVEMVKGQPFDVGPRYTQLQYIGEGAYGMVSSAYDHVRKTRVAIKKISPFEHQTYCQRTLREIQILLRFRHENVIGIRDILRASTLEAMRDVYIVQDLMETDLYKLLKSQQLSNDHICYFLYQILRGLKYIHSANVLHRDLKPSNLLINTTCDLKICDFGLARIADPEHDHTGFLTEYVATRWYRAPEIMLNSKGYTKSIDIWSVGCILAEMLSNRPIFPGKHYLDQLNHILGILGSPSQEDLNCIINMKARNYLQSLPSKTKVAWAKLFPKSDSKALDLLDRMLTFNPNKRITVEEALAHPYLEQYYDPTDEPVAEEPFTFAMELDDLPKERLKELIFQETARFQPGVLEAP

As for `CC(C)(C)NC(=O)[C@@H]1C[C@@H]2CCCC[C@@H]2CN1C[C@@H](O)[C@H](Cc1ccccc1)NC(=O)[C@H](CC(N)=O)NC(=O)c1ccc2ccccc2n1`, the IC50 result (in assay [1]; in assay [2] (chem-1); in assay [3]; against Neutrophil elastase; on Interstitial collagenase; in assay [4]) was “Not Active” throughout. Besides, the IC50 result at Acetylcholinesterase is “Not Active”. Further, the Ki entry in assay [1] and in assay [3] was “Not Active” in each case.
As to `CC1(C)O[C@@H]2C[C@H]3[C@@H]4CCC5=CC(=O)C=C[C@]5(C)[C@@]4(F)[C@@H](O)C[C@]3(C)[C@]2(C(=O)CO)O1` [TRIAMCINOLONE ACETONIDE], the half-inhibitory concentration (IC50) entry (in assay [1]; in assay [2] (chem-1); in assay [3]; on Neutrophil elastase; against Interstitial collagenase; in assay [4]) was “Not Active” throughout. In addition, on Acetylcholinesterase, the concentration for half-maximal inhibition (IC50) result was “Not Active”. Further, the Ki result in assay [1] and in assay [3] was “Not Active” each time.
Turning to `Cc1cccc(N(C)C(=S)Oc2ccc3ccccc3c2)c1` [TOLNAFTATE], the IC50 entry (in assay [1]; in assay [2] (chem-1); in assay [3]; against Neutrophil elastase; at Interstitial collagenase; in assay [4]) was “Not Active” in each case. Further, the IC50 result against Acetylcholinesterase was “Not Active”. Further, the Ki result in assay [1] and in assay [3] was “Not Active” each time.
As for `C[C@@H]1CN(c2c(F)c(N)c3c(=O)c(C(=O)O)cn(C4CC4)c3c2F)C[C@H](C)N1` [SPARFLOXACIN], the IC50 result (in assay [1]; in assay [2] (chem-1); in assay [3]; against Neutrophil elastase; at Interstitial collagenase; in assay [4]) was “Not Active” throughout. The concentration for half-maximal inhibition (IC50) result on Acetylcholinesterase is recorded as “Not Active”. Moreover, the Ki result in assay [1] and in assay [3] was “Not Active” throughout.
Turning to `Cn1ccnc1S` [METHIMAZOLE], the IC50 result (in assay [1]; in assay [2] (chem-1); in assay [3]; against Neutrophil elastase; on Interstitial collagenase; in assay [4]) was “Not Active” in each case. Also, the IC50 entry against Acetylcholinesterase was “Not Active”. The Ki entry in assay [1] and in assay [3] was “Not Active” throughout.
Turning to `CN1CCN(CCCN2c3ccccc3Sc3ccc(Cl)cc32)CC1` [PROCHLORPERAZINE], the IC50 entry (in assay [2] (chem-1); on Neutrophil elastase; on Interstitial collagenase; in assay [4]; against Acetylcholinesterase) was “Not Active” throughout.
In the case of `C=CCC1(C(C)CCC)C(=O)NC(=O)NC1=O` (stereo not drawn) [SECOBARBITAL], the IC50 entry (in assay [1]; in assay [2] (chem-1); in assay [3]; against Neutrophil elastase; at Interstitial collagenase; in assay [4]) was “Not Active” each time. The IC50 result against Acetylcholinesterase is reported as “Not Active”. For the same compound, the Ki entry in assay [1] and in assay [3] was “Not Active” each time.
As to `N[C@@H](Cc1ccc(N(CCCl)CCCl)cc1)C(=O)O`, the IC50 result (in assay [1]; in assay [2] (chem-1); in assay [3]; at Neutrophil elastase; on Interstitial collagenase; in assay [4]) was “Not Active” each time. Further, the IC50 result on Acetylcholinesterase is recorded as “Not Active”. Moreover, the Ki result in assay [1] and in assay [3] was “Not Active” in each case.
For the compound `Nc1nc2ccc(OC(F)(F)F)cc2s1` [RILUZOLE], the IC50 entry (in assay [1]; in assay [2] (chem-1); in assay [3]; against Neutrophil elastase; against Interstitial collagenase; in assay [4]) was “Not Active” in each case. Also, at Acetylcholinesterase, the IC50 result was “Not Active”. For the same compound, the Ki entry in assay [1] and in assay [3] was “Not Active” in each case.
`N[C@@H]1[C@H]2CN(c3nc4c(cc3F)c(=O)c(C(=O)O)cn4-c3ccc(F)cc3F)C[C@@H]12` [TROVAFLOXACIN]: the IC50 entry (in assay [1]; in assay [2] (chem-1); in assay [3]; against Neutrophil elastase; at Interstitial collagenase; in assay [4]) was “Not Active” in each case. The IC50 result at Acetylcholinesterase is on record as “Not Active”. In addition, the Ki entry in assay [1] and in assay [3] was “Not Active” in each case.
In the case of `COc1c(C)c2c(c(O)c1C/C=C(\C)CCC(=O)O)C(=O)OC2` [MYCOPHENOLIC ACID], the IC50 entry (in assay [1]; in assay [2] (chem-1); in assay [3]; at Neutrophil elastase; against Interstitial collagenase; in assay [4]) was “Not Active” each time. For the same compound, the IC50 result on Acetylcholinesterase is given as “Not Active”. Moreover, the Ki result in assay [1] and in assay [3] was “Not Active” throughout.
Consider `CCCOc1ccccc1-c1nc2nn[nH]c2c(=O)[nH]1` [ZAPRINAST], for which the IC50 result (in assay [1]; in assay [2] (chem-1); in assay [3]; on Neutrophil elastase; against Interstitial collagenase; in assay [4]) was “Not Active” each time. In addition, the IC50 result on Acetylcholinesterase is on record as “Not Active”. In addition, the Ki entry in assay [1] and in assay [3] was “Not Active” throughout.
Consider `Nc1nc2nc[nH]c2c(=S)[nH]1` [THIOGUANINE], for which the IC50 result in assay [1] is “Not Active”; in assay [2] (chem-1), “Not Active”; at Neutrophil elastase it was “Not Active”; on Interstitial collagenase, “Not Active”; in assay [4] (read-out: IC50) it was 5.52 µM; at Acetylcholinesterase, “Not Active”. For the same compound, the inhibition constant (Ki) result in assay [1] is “Not Active”.
As to `Cc1c(C)c2c(c(C)c1O)CCC(C)(COc1ccc(CC3SC(=O)NC3=O)cc1)O2` (stereo not drawn) [TROGLITAZONE], the IC50 result (in assay [1]; in assay [2] (chem-1); in assay [3]; on Neutrophil elastase; against Interstitial collagenase; in assay [4]) was “Not Active” each time. For the same compound, the IC50 result at Acetylcholinesterase is listed as “Not Active”. The Ki entry in assay [1] and in assay [3] was “Not Active” each time.
Regarding `Cc1nc2n(c(=O)c1CCN1CCC(c3noc4cc(F)ccc34)CC1)CCCC2` [RISPERIDONE], the IC50 result (in assay [2] (chem-1); at Neutrophil elastase; at Interstitial collagenase; in assay [4]; at Acetylcholinesterase) was “Not Active” throughout.
Take `COc1nc(C)nc(Cl)c1NC1=NCCN1` [MOXONIDINE]: the IC50 result (in assay [1]; in assay [2] (chem-1); in assay [3]; against Neutrophil elastase; at Interstitial collagenase; in assay [4]) was “Not Active” each time. At Acetylcholinesterase, the IC50 entry is on record as “Not Active”. Moreover, the Ki entry in assay [1] and in assay [3] was “Not Active” in each case.
As for `N[C@@H](Cc1cc(I)c(Oc2ccc(O)c(I)c2)c(I)c1)C(=O)O` [LIOTHYRONINE], the IC50 result (in assay [2] (chem-1); at Neutrophil elastase; at Interstitial collagenase; in assay [4]; on Acetylcholinesterase) was “Not Active” in each case.
For the compound `CCCCc1oc2ccccc2c1C(=O)c1cc(I)c(OCCN(CC)CC)c(I)c1` [AMIODARONE], the IC50 in assay [2] (read-out: IC50) was 21.8 µM; at Neutrophil elastase, “Not Active”; at Interstitial collagenase, “Not Active”; in assay [4], “Not Active”; on Acetylcholinesterase, “Not Active”. In assay [2] (read-out: Ki), the Ki came out at 11.4 µM.
Turning to `Nc1c2c(nc3ccccc13)CCCC2` [TACRINE], the IC50 result (in assay [1]; in assay [2] (chem-1); in assay [3]; against Neutrophil elastase; against Interstitial collagenase; in assay [4]) was “Not Active” each time. Further, the Ki result in assay [1] and in assay [3] was “Not Active” in each case.
Turning to `CC/C(=C(\c1ccccc1)c1ccc(OCCN(C)C)cc1)c1ccccc1` [TAMOXIFEN], the IC50 entry (in assay [2] (chem-1); against Neutrophil elastase; on Interstitial collagenase; in assay [4]; against Acetylcholinesterase) was “Not Active” each time.
